Laboratory results as given in patent US4111955A, “N-Trihalomethanesulfenyl carbamoyloximino di-sulfur heterocyclic compounds” (priority 1976, dated 1978).

These compounds were tested on two-spotted mite (Tetranychus urticae Koch) (assay: Mite Foliage Spray Test). Details: 500 parts per million, 6 days.
Format: in vivo
Parameters: key to pesticidal activity rating, Mite: A: excellent control; B: partial control; C: no control
Experimental: Adults and nymphal stages of the two-spotted mite (Tetranychus urticae Koch), reared on Tendergreen bean plants at 80±5 percent relative humidity, were the test organisms. Infested leaves from a stock culture were placed on the primary leaves of two bean plants 6 to 8 inches in height, growing in a 21/2 inch clay pot. 150-200 Mites, a sufficient number for testing, transferred from the excised leaves to the fresh plants in a period of 24 hours. Following the 24 hour transfer period, the excised leaves were removed from the infested plants. The test compounds were formulated by diluting the stock suspension with water to give a suspension containing 500 parts of test compound per million parts of final formulation. The potted plants (one pot per compound) were placed on a revolving turntable and sprayed with 100-110 milliliters of test compound formulation by use of a DeVilbiss spray gun set at 40 psig. air pressure. This application, which lasted 25 seconds, was sufficient to wet the plants to run-off. As a control, 100-110 milliliters of a water solution containing acetone and emulsifier in the same concentrations as the test compound formulation, but containing no test compound, were also sprayed on infested plants. The sprayed plants were held at 80±5 percent relative humidity for 6 days, after which a mortality count of motile forms was made. Microscopic examination for motile forms was made on the leaves of the test plants. Any individual which was capable of locomotion upon prodding was considered living.
(§1) In these tests the pesticidal activity of the compounds against aphid, mite, Southern Armyworm, Bean Beetle and House fly was rated as follows:
(§2) The LD50 values shown in the above Table II were determined by testing the compositions over an appropriate concentration range obtained by serial dilution of the stock suspension with water. The percent kill was plotted on log-probit graph paper versus parts per million concentration, and the LD50 read from an eye-fitted line drawn through the resultant points.

Q: Which “pesticidal activity rating, Mite” value does the source give for `CC1SCCSC1=NOC(=O)N(C)SC(Cl)(Cl)Cl` (stereo not drawn) here?
A: Its value is “A”.

Q: With `CN(SC(Cl)(Cl)Cl)C(=O)ON=C1CSC(C)(C)S1` as the compound, how does the “pesticidal activity rating, Mite” value read?
A: The value was “A”.

Q: `CNC(=O)ON=C1CSC(C)(C)S1` [drawing 6 --NHCH3, reference compound] was tested. Which “pesticidal activity rating, Mite” value did it give?
A: Its value is “A”.

Q: With `CN(SC(F)(F)F)C(=O)ON=C1CSCCS1` [2-O-[(N-METHYL-N-TRIFLUOROMETHANESULFENYL)-CARBAMOYLOXIMINO]-1,4-DITHIANE] as the compound, how does the “pesticidal activity rating, Mite” value read?
A: Its value is “A”.

Q: How did the “pesticidal activity rating, Mite” value turn out when `CCCC1SCCSC1=NOC(=O)N(C)SC(Cl)(Cl)Cl` (stereo not drawn) was run?
A: Its value is “C”.

Q: How did the “pesticidal activity rating, Mite” value turn out when `CCCC1SCCSC1=NOC(=O)NC` (stereo not drawn) [drawing 9 --NHCH3, reference compound] was run?
A: Its value is “C”.

These compounds were tested on house flies (Musca domestica, L.) (assay: Fly Bait Test). Details: 500 parts per million, 24 hours.
Format: in vivo
Parameters: key to pesticidal activity rating, Housefly: A: excellent control; B: partial control; C: no control
Experimental: Four to 6 day old adult house flies (Musca domestica, L.), reared according to the specifications of the Chemical Specialities Manufacturing Association (Blue Book, McNair-Dorland Co., N.Y. 1954; pages 243-244, 261) under controlled conditions of 80°±5° F. and 50±5 percent relative humidity, were the test insects. The flies were immobilized by anesthetizing with carbon dioxide and twenty five immobilized individuals, males and females, were transferred to a cage consisting of a standard food strainer about 5 inches in diameter which was inverted over a wrapping-paper-covered surface. The test compounds were formulated by diluting the stock suspension with a 10 percent (by weight) sugar solution to give a suspension containing 500 parts of test compound per million parts of final formulation, by weight. Ten milliliters of the test formulation were added to a souffle cup containing a 1-inch square of an absorbent cotton pad. This bait cup was introduced and centered on the blotting paper under the food strainer prior to admitting the anesthetized flies. The caged flies were allowed to feed on the bait for 24 hours, at a temperature of 80°±5° F. and the relative humidity of 50±5 percent.
as §1, §2

Q: With `CC1SCCSC1=NOC(=O)N(C)SC(Cl)(Cl)Cl` (stereo not drawn) as the compound, how does the “pesticidal activity rating, Housefly” value read?
A: Its value is “A”.

Q: `CN(SC(Cl)(Cl)Cl)C(=O)ON=C1CSC(C)(C)S1` was tested. Which “pesticidal activity rating, Housefly” value did it give?
A: The value was “A”.

Q: `CNC(=O)ON=C1CSC(C)(C)S1` [drawing 6 --NHCH3, reference compound] was tested. Which “pesticidal activity rating, Housefly” value did it give?
A: Its value is “A”.

Q: `CN(SC(F)(F)F)C(=O)ON=C1CSCCS1` [2-O-[(N-METHYL-N-TRIFLUOROMETHANESULFENYL)-CARBAMOYLOXIMINO]-1,4-DITHIANE] was tested. Which “pesticidal activity rating, Housefly” value did it give?
A: The value was “A”.

Q: For `CCCC1SCCSC1=NOC(=O)N(C)SC(Cl)(Cl)Cl` (stereo not drawn), which “pesticidal activity rating, Housefly” value is on record?
A: Its value is “A”.

Q: For `CCCC1SCCSC1=NOC(=O)NC` (stereo not drawn) [drawing 9 --NHCH3, reference compound], which “pesticidal activity rating, Housefly” value is on record?
A: The value was “A”.

Each compound was assayed on southern armyworm (Prodenia eridania, (Cram.)) (assay: Southern Armyworm Leaf Spray Test). Details: 500 parts per million, 3 days.
Format: in vivo
Parameters: key to pesticidal activity rating, Armyworm: A: excellent control; B: partial control; C: no control
Experimental: Larvae of the southern armyworm (Prodenia eridania, (Cram.)), reared on Tendergreen bean plants at a temperature of 80°±5° F. and a relative humidity of 50±5 percent, constituted the test insects.
The test compounds were formulated by diluting the stock suspension with water to give a suspension containing 500 parts of test compound per million parts of final formulation. Potted Tendergreen bean plants of standard height and age were placed on a revolving turntable and sprayed with 100-110 milliliters of test compound formulation by use of a DeVilbiss spray gun set at 10 psig air pressure. This application, which lasted 25 seconds, was sufficient to wet plants to run-off. As a control, 100-110 milliliters of a water-acetone-emulsifier solution containing no test compound were also sprayed on infested plants. When dry, the paired leaves were separated and each one was placed in a 9 centimeter Petri dish lined with moistened filter paper. Five randomly selected larvae were introduced into each dish and the dishes were closed. The closed dishes were labeled and held at 80°-85° F. for 3 days. Although the larvae could easily consume the whole leaf within 24 hours, no more food was added. Larvae which were unable to move the length of the body, even upon stimulation by prodding, were considered dead. Percent mortality was recorded for various concentration levels.
as §1, §2

Q: With `CC1SCCSC1=NOC(=O)N(C)SC(Cl)(Cl)Cl` (stereo not drawn) as the compound, how does the “pesticidal activity rating, Armyworm” value read?
A: The value was “A”.

Q: For `CN(SC(Cl)(Cl)Cl)C(=O)ON=C1CSC(C)(C)S1`, which “pesticidal activity rating, Armyworm” value is on record?
A: Its value is “C”.

Q: With `CNC(=O)ON=C1CSC(C)(C)S1` [drawing 6 --NHCH3, reference compound] as the compound, how does the “pesticidal activity rating, Armyworm” value read?
A: The value was “B”.

Q: With `CN(SC(F)(F)F)C(=O)ON=C1CSCCS1` [2-O-[(N-METHYL-N-TRIFLUOROMETHANESULFENYL)-CARBAMOYLOXIMINO]-1,4-DITHIANE] as the compound, how does the “pesticidal activity rating, Armyworm” value read?
A: Its value is “A”.

Q: With `CCCC1SCCSC1=NOC(=O)N(C)SC(Cl)(Cl)Cl` (stereo not drawn) as the compound, how does the “pesticidal activity rating, Armyworm” value read?
A: Its value is “C”.

Q: For `CCCC1SCCSC1=NOC(=O)NC` (stereo not drawn) [drawing 9 --NHCH3, reference compound], which “pesticidal activity rating, Armyworm” value is on record?
A: Its value is “C”.

These compounds were tested on bean aphid (Aphis fabae Scop.) (assay: Bean Aphid Foliage Spray Test). Details: 500 parts per million, 24 hour.
Format: in vivo
Parameters: key to pesticidal activity rating, Aphid: A: excellent control; B: partial control; C: no control
Experimental: Adults and nymphal stages of the bean aphid (Aphis fabae Scop.) reared on potted dwarf nasturtium plants at 65°-70° F. and 50-70 percent relative humidity, constituted the test insects. For testing purposes, the number of aphids per pot was standardized to 100-150 by trimming plants containing excess aphids.
The test compounds were formulated by diluting the stock suspension with water to give a suspension containing 500 parts of test compound per million parts of final formulation.
The potted plants (one pot per compound tested) infested with 100-150 aphids, were placed on a revolving turntable and sprayed with 100-110 milliliters of test compound formulation by use of a DeVilbiss spray gun set at 40 psig. air pressure. This application, which lasted 25 seconds, was sufficient to wet the plants to run-off. As a control, 100-110 milliliters of a water-acetone-emulsifier solution containing no test compound were also sprayed on infested plants. After spraying, the pots were placed on their sides on a sheet of white standard mimeograph paper which had been previously ruled to facilitate counting. Temperature and humidity in the test room during the 24 hour holding period were 65°-70° F. and 50-70 percent, respectively. Aphids which fell onto the paper and were unable to remain standing after being uprighted were considered dead. Aphids remaining on the plants were observed closely for movement and those which were unable to move the length of the body upon stimulation by prodding were considered dead. Percent mortality was recorded for various concentration levels.
as §1, §2

Q: For `CC1SCCSC1=NOC(=O)N(C)SC(Cl)(Cl)Cl` (stereo not drawn), which “pesticidal activity rating, Aphid” value is on record?
A: Its value is “A”.

Q: How did the “pesticidal activity rating, Aphid” value turn out when `CN(SC(Cl)(Cl)Cl)C(=O)ON=C1CSC(C)(C)S1` was run?
A: The value was “A”.

Q: With `CNC(=O)ON=C1CSC(C)(C)S1` [drawing 6 --NHCH3, reference compound] as the compound, how does the “pesticidal activity rating, Aphid” value read?
A: Its value is “A”.

Q: For `CN(SC(F)(F)F)C(=O)ON=C1CSCCS1` [2-O-[(N-METHYL-N-TRIFLUOROMETHANESULFENYL)-CARBAMOYLOXIMINO]-1,4-DITHIANE], which “pesticidal activity rating, Aphid” value is on record?
A: The value was “A”.

Q: `CCCC1SCCSC1=NOC(=O)N(C)SC(Cl)(Cl)Cl` (stereo not drawn) was tested. Which “pesticidal activity rating, Aphid” value did it give?
A: The value was “B”.

Q: `CCCC1SCCSC1=NOC(=O)NC` (stereo not drawn) [drawing 9 --NHCH3, reference compound] was tested. Which “pesticidal activity rating, Aphid” value did it give?
A: The value was “A”.

The compounds below were run on Mexican bean beetle (Epilachna varivestis, Muls.) (assay: Mexican Bean Beetle Leaf Spray Test). Details: leaf spray, 500 parts per million, 3 days.
Format: in vivo
Parameters: key to pesticidal activity rating, Bean beetle: A: excellent control; B: partial control; C: no control
Experimental: Fourth instar larvae of the Mexican bean beetle (Epilachna varivestis, Muls.), reared on Tendergreen bean plants at a temperature of 80°±5° F. and 50±5 percent relative humidity, were the test insects.
The test compounds were formulated by diluting the stock suspension with water to give a suspension containing 500 parts of test compound per million parts of final formulation. Potted Tendergreen bean plants of standard height and age were placed on a revolving turntable and sprayed with 100-110 milliliters of test compound formulation by use of a DeVilbiss spray gun set at 10 psig air pressure. This application, which lasted 25 seconds, was sufficient to wet plants to run-off. As a control, 100-110 milliliters of a water-acetone-emulsifier solution containing no test compound were also sprayed on infested plants. When dry, the paired leaves were separated and each was placed in a 9 centimeter Petri dish lined with moistened filter paper. Five randomly selected larvae were introduced into each dish, and the dishes were closed. The closed dishes were labeled and held at a temperature of 80°±5° F. for 3 days. Although the larvae could easily consume the leaf within 24 to 48 hours, no more food was added. Larvae which were unable to move the length of the body, even upon stimulation, were considered dead.
as §1, §2

Q: With `CC1SCCSC1=NOC(=O)N(C)SC(Cl)(Cl)Cl` (stereo not drawn) as the compound, how does the “pesticidal activity rating, Bean beetle” value read?
A: The value was “A”.

Q: Which “pesticidal activity rating, Bean beetle” value does the source give for `CN(SC(Cl)(Cl)Cl)C(=O)ON=C1CSC(C)(C)S1` here?
A: The value was “A”.

Q: Which “pesticidal activity rating, Bean beetle” value does the source give for `CNC(=O)ON=C1CSC(C)(C)S1` [drawing 6 --NHCH3, reference compound] here?
A: The value was “A”.

Q: `CN(SC(F)(F)F)C(=O)ON=C1CSCCS1` [2-O-[(N-METHYL-N-TRIFLUOROMETHANESULFENYL)-CARBAMOYLOXIMINO]-1,4-DITHIANE] was tested. Which “pesticidal activity rating, Bean beetle” value did it give?
A: The value was “A”.

Q: For `CCCC1SCCSC1=NOC(=O)N(C)SC(Cl)(Cl)Cl` (stereo not drawn), which “pesticidal activity rating, Bean beetle” value is on record?
A: The value was “A”.

Q: Which “pesticidal activity rating, Bean beetle” value does the source give for `CCCC1SCCSC1=NOC(=O)NC` (stereo not drawn) [drawing 9 --NHCH3, reference compound] here?
A: Its value is “A”.
